According to PubChem BioAssay (NCI):
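1) Cells in 96-well plates. 2) Compound, 48 h, 5 concentrations. 3) Linear interpolation between surrounding doses. 4) Unreached endpoint = highest concentration. GI50 marks 50% less growth. TGI denotes the concentration required for complete inhibition of growth.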

Assays:
Test in all cases: growth of human tumour cells (NCI), 48 h
NCI-H226 lung = test system: NCI-H226 lung
NCI-H23 lung = test system: NCI-H23 lung
NCI-H460 lung = test system: NCI-H460 lung
NCI-H522 lung = test system: NCI-H522 lung
NCI/ADR-RES ovarian = test system: NCI/ADR-RES ovarian
OVCAR-3 ovarian = test system: OVCAR-3 ovarian
OVCAR-4 ovarian = test system: OVCAR-4 ovarian
OVCAR-5 ovarian = test system: OVCAR-5 ovarian
OVCAR-8 ovarian = test system: OVCAR-8 ovarian
PC-3 prostate = test system: PC-3 prostate
RXF 393 renal = test system: RXF 393 renal
SF-268 CNS = test system: SF-268 CNS
SF-295 CNS = test system: SF-295 CNS
SF-539 CNS = test system: SF-539 CNS
SK-MEL-28 melanoma = test system: SK-MEL-28 melanoma
SK-MEL-5 melanoma = test system: SK-MEL-5 melanoma
SK-OV-3 ovarian = test system: SK-OV-3 ovarian
SN12C renal = test system: SN12C renal
SNB-19 CNS = test system: SNB-19 CNS
SR leukemia = test system: SR leukemia
SW-620 colon = test system: SW-620 colon
T-47D breast = test system: T-47D breast
TK-10 renal = test system: TK-10 renal
U251 CNS = test system: U251 CNS
UACC-257 melanoma = test system: UACC-257 melanoma
UACC-62 melanoma = test system: UACC-62 melanoma
UO-31 renal = test system: UO-31 renal

O=C(CN/C=C\C(=O)c1cc(Cl)ccc1Cl)c1ccccc1
GI50 (NCI-H226 lung): 25.5 µM
TGI (NCI-H226 lung): 58.8 µM
GI50 (NCI-H23 lung): 19.1 µM
TGI (NCI-H23 lung): 44.2 µM
GI50 (NCI-H460 lung): 32.3 µM
TGI (NCI-H460 lung): > 100 µM
GI50 (NCI-H522 lung): 17.4 µM
TGI (NCI-H522 lung): 34.8 µM
GI50 (NCI/ADR-RES ovarian): 19.7 µM
TGI (NCI/ADR-RES ovarian): 41.2 µM
GI50 (OVCAR-3 ovarian): 26 µM
TGI (OVCAR-3 ovarian): 85.7 µM
GI50 (OVCAR-4 ovarian): 49.8 µM
TGI (OVCAR-4 ovarian): > 100 µM
GI50 (OVCAR-5 ovarian): 30.6 µM
TGI (OVCAR-5 ovarian): > 100 µM
GI50 (OVCAR-8 ovarian): 26.4 µM
TGI (OVCAR-8 ovarian): 71.4 µM
GI50 (PC-3 prostate): 26 µM
TGI (PC-3 prostate): 67 µM
GI50 (RXF 393 renal): 22.9 µM
TGI (RXF 393 renal): 67.5 µM
GI50 (SF-268 CNS): 24.8 µM
TGI (SF-268 CNS): 83.4 µM
GI50 (SF-295 CNS): 20.4 µM
TGI (SF-295 CNS): 50.7 µM
GI50 (SF-539 CNS): 20.4 µM
TGI (SF-539 CNS): 38.8 µM
GI50 (SK-MEL-28 melanoma): 41.9 µM
TGI (SK-MEL-28 melanoma): > 100 µM
GI50 (SK-MEL-5 melanoma): 18.1 µM
TGI (SK-MEL-5 melanoma): 33.7 µM
GI50 (SK-OV-3 ovarian): 47.1 µM
TGI (SK-OV-3 ovarian): > 100 µM
GI50 (SN12C renal): 25.9 µM
TGI (SN12C renal): 57.1 µM
GI50 (SNB-19 CNS): 47.4 µM
TGI (SNB-19 CNS): > 100 µM
GI50 (SR leukemia): > 100 µM
TGI (SR leukemia): > 100 µM
GI50 (SW-620 colon): 32 µM
TGI (SW-620 colon): > 100 µM
GI50 (T-47D breast): 33.4 µM
TGI (T-47D breast): > 100 µM
GI50 (TK-10 renal): 26 µM
TGI (TK-10 renal): 73.7 µM
GI50 (U251 CNS): 33.1 µM
TGI (U251 CNS): 99.6 µM
GI50 (UACC-257 melanoma): 24.7 µM
TGI (UACC-257 melanoma): 61.9 µM
GI50 (UACC-62 melanoma): 20.7 µM
TGI (UACC-62 melanoma): 52 µM
GI50 (UO-31 renal): 34.4 µM
TGI (UO-31 renal): > 100 µM
